ChEMBL document CHEMBL4649997, “Data for probe TP-472” (2021)

Columns and labels:
[1] = molecular target: Peregrin (Homo sapiens, UniProt P55201); test: Alphascreen assay. Binding to BRPF1B (domain start/stop: M626-G740) by alphascreen assay
[2] = molecular target: T1, Chromatin remodeling regulator CECR2 (Homo sapiens, UniProt Q9BXF3); test: Alphascreen assay. Binding to CECR2A (domain start/stop: P420-D543) by alphascreen assay
Target sequence in this assay (Q9BXF3 whole entry): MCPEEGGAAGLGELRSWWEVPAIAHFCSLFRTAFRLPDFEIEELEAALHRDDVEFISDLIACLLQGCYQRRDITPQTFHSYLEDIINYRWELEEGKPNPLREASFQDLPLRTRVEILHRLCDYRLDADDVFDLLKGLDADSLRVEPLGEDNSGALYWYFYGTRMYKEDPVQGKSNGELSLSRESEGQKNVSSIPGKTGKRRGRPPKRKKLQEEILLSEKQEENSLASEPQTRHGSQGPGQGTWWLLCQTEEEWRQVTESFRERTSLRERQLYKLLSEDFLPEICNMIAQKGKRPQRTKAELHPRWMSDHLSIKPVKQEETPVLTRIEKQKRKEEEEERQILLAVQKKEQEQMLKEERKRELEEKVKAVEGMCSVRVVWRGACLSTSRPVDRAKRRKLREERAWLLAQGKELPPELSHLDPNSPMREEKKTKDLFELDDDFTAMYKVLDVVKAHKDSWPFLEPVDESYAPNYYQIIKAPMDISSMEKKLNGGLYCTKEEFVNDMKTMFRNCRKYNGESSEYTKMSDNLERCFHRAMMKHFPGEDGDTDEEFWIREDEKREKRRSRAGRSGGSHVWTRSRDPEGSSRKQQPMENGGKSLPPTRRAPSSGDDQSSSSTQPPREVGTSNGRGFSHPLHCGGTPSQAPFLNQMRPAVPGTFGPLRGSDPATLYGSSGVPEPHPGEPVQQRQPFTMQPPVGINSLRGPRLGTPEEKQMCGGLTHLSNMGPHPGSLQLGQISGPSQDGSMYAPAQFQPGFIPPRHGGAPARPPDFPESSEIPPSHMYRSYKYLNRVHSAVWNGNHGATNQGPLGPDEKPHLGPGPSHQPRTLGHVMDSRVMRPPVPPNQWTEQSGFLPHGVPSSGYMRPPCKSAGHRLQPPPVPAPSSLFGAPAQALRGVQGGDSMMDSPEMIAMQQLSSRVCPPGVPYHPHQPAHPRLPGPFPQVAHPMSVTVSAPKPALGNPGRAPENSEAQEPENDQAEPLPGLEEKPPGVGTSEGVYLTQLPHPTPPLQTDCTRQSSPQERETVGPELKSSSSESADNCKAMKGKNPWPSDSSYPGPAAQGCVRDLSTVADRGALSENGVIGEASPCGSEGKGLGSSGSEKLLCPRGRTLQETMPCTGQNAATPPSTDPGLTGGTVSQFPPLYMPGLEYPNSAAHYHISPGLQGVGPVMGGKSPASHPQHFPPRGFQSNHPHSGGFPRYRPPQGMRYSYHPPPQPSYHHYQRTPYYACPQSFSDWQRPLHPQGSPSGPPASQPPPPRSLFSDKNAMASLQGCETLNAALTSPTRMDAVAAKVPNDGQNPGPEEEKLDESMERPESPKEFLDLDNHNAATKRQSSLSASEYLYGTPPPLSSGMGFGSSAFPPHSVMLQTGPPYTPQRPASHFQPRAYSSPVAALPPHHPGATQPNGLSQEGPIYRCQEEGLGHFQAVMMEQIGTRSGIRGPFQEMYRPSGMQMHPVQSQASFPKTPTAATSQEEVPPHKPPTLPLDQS

[3] = molecular target: T1, Chromatin remodeling regulator CECR2; test: Alphascreen assay. Binding to CECR2A (domain start/stop: P420-H538) by alphascreen assay
Target sequence in this assay (Q9BXF3 whole entry): as above

[4] = molecular target: T2, CREB-binding protein (Homo sapiens, UniProt Q92793); test: Alphascreen assay. Binding to CREBBPA (domain start/stop: R1081-G1197) by alphascreen assay
[5] = molecular target: Histone-lysine N-methyltransferase ASH1L (Homo sapiens) (UniProt Q9NR48); conditions: Compound concentration 10.0 uM, Protein concentration 2.0 uM
[6] = molecular target: ATPase family AAA domain-containing protein 2 (Homo sapiens) (UniProt Q6PL18); conditions: Compound concentration 10.0 uM, Protein concentration 2.0 uM
[7] = molecular target: ATPase family AAA domain-containing protein 2B (Homo sapiens) (UniProt Q9ULI0); conditions: Compound concentration 10.0 uM, Protein concentration 2.0 uM
[8] = molecular target: Bromodomain adjacent to zinc finger domain protein 1A (Homo sapiens) (UniProt Q9NRL2); conditions: Compound concentration 10.0 uM, Protein concentration 2.0 uM
[9] = molecular target: Tyrosine-protein kinase BAZ1B (Homo sapiens) (UniProt Q9UIG0); conditions: Compound concentration 10.0 uM, Protein concentration 2.0 uM
[10] = molecular target: Bromodomain adjacent to zinc finger domain protein 2A (Homo sapiens) (UniProt Q9UIF9); conditions: Compound concentration 10.0 uM, Protein concentration 2.0 uM
[11] = molecular target: Bromodomain adjacent to zinc finger domain protein 2B (Homo sapiens) (UniProt Q9UIF8); conditions: Compound concentration 10.0 uM, Protein concentration 2.0 uM
[12] = molecular target: Nucleosome-remodeling factor subunit BPTF (Homo sapiens) (UniProt Q12830); conditions: Compound concentration 10.0 uM, Protein concentration 2.0 uM
[13] = molecular target: Bromodomain-containing protein 1 (Homo sapiens) (UniProt O95696); conditions: Compound concentration 10.0 uM, Protein concentration 2.0 uM
[14] = molecular target: Bromodomain-containing protein 2 (Homo sapiens) (UniProt P25440); conditions: Compound concentration 10.0 uM, Protein concentration 2.0 uM
[15] = molecular target: Bromodomain-containing protein 2 (Homo sapiens) (UniProt P25440); conditions: Compound concentration 10.0 uM, Protein concentration 2.0 uM; remark: listed apart in the source
[16] = molecular target: Bromodomain-containing protein 3 (Homo sapiens) (UniProt Q15059); conditions: Compound concentration 10.0 uM, Protein concentration 2.0 uM
[17] = molecular target: Bromodomain-containing protein 3 (Homo sapiens) (UniProt Q15059); conditions: Compound concentration 10.0 uM, Protein concentration 2.0 uM; remark: listed apart in the source
[18] = molecular target: Bromodomain-containing protein 4 (Homo sapiens) (UniProt O60885); conditions: Compound concentration 10.0 uM, Protein concentration 2.0 uM
[19] = molecular target: Bromodomain-containing protein 7 (Homo sapiens) (UniProt Q9NPI1); conditions: Compound concentration 10.0 uM, Protein concentration 2.0 uM
[20] = molecular target: Bromodomain-containing protein 9 (Homo sapiens) (UniProt Q9H8M2); conditions: Compound concentration 10.0 uM, Protein concentration 2.0 uM
[21] = molecular target: Bromodomain testis-specific protein (Homo sapiens) (UniProt Q58F21); conditions: Compound concentration 10.0 uM, Protein concentration 2.0 uM
[22] = molecular target: Bromodomain testis-specific protein (Homo sapiens) (UniProt Q58F21); conditions: Compound concentration 10.0 uM, Protein concentration 2.0 uM; remark: listed apart in the source
[23] = molecular target: Peregrin (Homo sapiens) (UniProt P55201); conditions: Compound concentration 10.0 uM, Protein concentration 2.0 uM
[24] = molecular target: Bromodomain and PHD finger-containing protein 3 (Homo sapiens) (UniProt Q9ULD4); conditions: Compound concentration 10.0 uM, Protein concentration 2.0 uM
[25] = molecular target: Bromodomain and WD repeat-containing protein 1 (Homo sapiens) (UniProt Q9NSI6); conditions: Compound concentration 10.0 uM, Protein concentration 2.0 uM
[26] = molecular target: Bromodomain and WD repeat-containing protein 3 (Homo sapiens) (UniProt Q6RI45); conditions: Compound concentration 10.0 uM, Protein concentration 2.0 uM
[27] = molecular target: T1, Chromatin remodeling regulator CECR2; conditions: Compound concentration 10.0 uM, Protein concentration 2.0 uM
Target sequence in this assay (Q9BXF3 whole entry, looked up): as the sequence (Q9BXF3 whole entry) above

[28] = molecular target: T2, CREB-binding protein; conditions: Compound concentration 10.0 uM, Protein concentration 2.0 uM
[29] = molecular target: Histone acetyltransferase p300 (Homo sapiens) (UniProt Q09472); conditions: Compound concentration 10.0 uM, Protein concentration 2.0 uM
[30] = molecular target: Histone acetyltransferase KAT2A (Homo sapiens) (UniProt Q92830); conditions: Compound concentration 10.0 uM, Protein concentration 2.0 uM
[31] = molecular target: Histone acetyltransferase KAT2B (Homo sapiens) (UniProt Q92831); conditions: Compound concentration 10.0 uM, Protein concentration 2.0 uM
[32] = molecular target: Histone-lysine N-methyltransferase 2A (Homo sapiens) (UniProt Q03164); conditions: Compound concentration 10.0 uM, Protein concentration 2.0 uM
[33] = molecular target: Protein polybromo-1 (Homo sapiens) (UniProt Q86U86); conditions: Compound concentration 10.0 uM, Protein concentration 2.0 uM
[34] = molecular target: Protein polybromo-1 (Homo sapiens) (UniProt Q86U86); conditions: Compound concentration 10.0 uM, Protein concentration 2.0 uM; remark: listed apart in the source
[35] = molecular target: Protein polybromo-1 (Homo sapiens) (UniProt Q86U86); conditions: Compound concentration 10.0 uM, Protein concentration 2.0 uM; remark: listed apart in the source
[36] = molecular target: Protein polybromo-1 (Homo sapiens) (UniProt Q86U86); conditions: Compound concentration 10.0 uM, Protein concentration 2.0 uM; remark: listed apart in the source
[37] = molecular target: Protein polybromo-1 (Homo sapiens) (UniProt Q86U86); conditions: Compound concentration 10.0 uM, Protein concentration 2.0 uM; remark: listed apart in the source
[38] = molecular target: Protein polybromo-1 (Homo sapiens) (UniProt Q86U86); conditions: Compound concentration 10.0 uM, Protein concentration 2.0 uM; remark: listed apart in the source
[39] = molecular target: PH-interacting protein (Homo sapiens) (UniProt Q8WWQ0); conditions: Compound concentration 10.0 uM, Protein concentration 2.0 uM
[40] = molecular target: SWI/SNF-related matrix-associated actin-dependent regulator of chromatin subfamily A member 2 (Homo sapiens) (UniProt P51531); conditions: Compound concentration 10.0 uM, Protein concentration 2.0 uM
[41] = molecular target: SWI/SNF-related matrix-associated actin-dependent regulator of chromatin subfamily A member 4 (Homo sapiens) (UniProt P51532); conditions: Compound concentration 10.0 uM, Protein concentration 2.0 uM
[42] = molecular target: Nuclear body protein SP140 (Homo sapiens) (UniProt Q13342); conditions: Compound concentration 10.0 uM, Protein concentration 2.0 uM
[43] = molecular target: Nuclear body protein SP140-like protein (Homo sapiens) (UniProt Q9H930); conditions: Compound concentration 10.0 uM, Protein concentration 2.0 uM
[44] = molecular target: Transcription initiation factor TFIID subunit 1 (Homo sapiens) (UniProt P21675); conditions: Compound concentration 10.0 uM, Protein concentration 2.0 uM
[45] = molecular target: Transcription initiation factor TFIID subunit 1 (Homo sapiens) (UniProt P21675); conditions: Compound concentration 10.0 uM, Protein concentration 2.0 uM; remark: listed apart in the source
[46] = molecular target: Transcription initiation factor TFIID subunit 1-like (Homo sapiens) (UniProt Q8IZX4); conditions: Compound concentration 10.0 uM, Protein concentration 2.0 uM
[47] = molecular target: Transcription initiation factor TFIID subunit 1-like (Homo sapiens) (UniProt Q8IZX4); conditions: Compound concentration 10.0 uM, Protein concentration 2.0 uM; remark: listed apart in the source
[48] = molecular target: Transcription intermediary factor 1-alpha (Homo sapiens) (UniProt O15164); conditions: Compound concentration 10.0 uM, Protein concentration 2.0 uM
[49] = molecular target: Transcription intermediary factor 1-beta (Homo sapiens) (UniProt Q13263); conditions: Compound concentration 10.0 uM, Protein concentration 2.0 uM
[50] = molecular target: Peregrin (Homo sapiens) (UniProt P55201); conditions: Compound concentration 10.0 uM, Protein concentration 2.0 uM; remark: listed apart in the source

Protein polybromo-1 (Homo sapiens), sequence (Q86U86 whole entry): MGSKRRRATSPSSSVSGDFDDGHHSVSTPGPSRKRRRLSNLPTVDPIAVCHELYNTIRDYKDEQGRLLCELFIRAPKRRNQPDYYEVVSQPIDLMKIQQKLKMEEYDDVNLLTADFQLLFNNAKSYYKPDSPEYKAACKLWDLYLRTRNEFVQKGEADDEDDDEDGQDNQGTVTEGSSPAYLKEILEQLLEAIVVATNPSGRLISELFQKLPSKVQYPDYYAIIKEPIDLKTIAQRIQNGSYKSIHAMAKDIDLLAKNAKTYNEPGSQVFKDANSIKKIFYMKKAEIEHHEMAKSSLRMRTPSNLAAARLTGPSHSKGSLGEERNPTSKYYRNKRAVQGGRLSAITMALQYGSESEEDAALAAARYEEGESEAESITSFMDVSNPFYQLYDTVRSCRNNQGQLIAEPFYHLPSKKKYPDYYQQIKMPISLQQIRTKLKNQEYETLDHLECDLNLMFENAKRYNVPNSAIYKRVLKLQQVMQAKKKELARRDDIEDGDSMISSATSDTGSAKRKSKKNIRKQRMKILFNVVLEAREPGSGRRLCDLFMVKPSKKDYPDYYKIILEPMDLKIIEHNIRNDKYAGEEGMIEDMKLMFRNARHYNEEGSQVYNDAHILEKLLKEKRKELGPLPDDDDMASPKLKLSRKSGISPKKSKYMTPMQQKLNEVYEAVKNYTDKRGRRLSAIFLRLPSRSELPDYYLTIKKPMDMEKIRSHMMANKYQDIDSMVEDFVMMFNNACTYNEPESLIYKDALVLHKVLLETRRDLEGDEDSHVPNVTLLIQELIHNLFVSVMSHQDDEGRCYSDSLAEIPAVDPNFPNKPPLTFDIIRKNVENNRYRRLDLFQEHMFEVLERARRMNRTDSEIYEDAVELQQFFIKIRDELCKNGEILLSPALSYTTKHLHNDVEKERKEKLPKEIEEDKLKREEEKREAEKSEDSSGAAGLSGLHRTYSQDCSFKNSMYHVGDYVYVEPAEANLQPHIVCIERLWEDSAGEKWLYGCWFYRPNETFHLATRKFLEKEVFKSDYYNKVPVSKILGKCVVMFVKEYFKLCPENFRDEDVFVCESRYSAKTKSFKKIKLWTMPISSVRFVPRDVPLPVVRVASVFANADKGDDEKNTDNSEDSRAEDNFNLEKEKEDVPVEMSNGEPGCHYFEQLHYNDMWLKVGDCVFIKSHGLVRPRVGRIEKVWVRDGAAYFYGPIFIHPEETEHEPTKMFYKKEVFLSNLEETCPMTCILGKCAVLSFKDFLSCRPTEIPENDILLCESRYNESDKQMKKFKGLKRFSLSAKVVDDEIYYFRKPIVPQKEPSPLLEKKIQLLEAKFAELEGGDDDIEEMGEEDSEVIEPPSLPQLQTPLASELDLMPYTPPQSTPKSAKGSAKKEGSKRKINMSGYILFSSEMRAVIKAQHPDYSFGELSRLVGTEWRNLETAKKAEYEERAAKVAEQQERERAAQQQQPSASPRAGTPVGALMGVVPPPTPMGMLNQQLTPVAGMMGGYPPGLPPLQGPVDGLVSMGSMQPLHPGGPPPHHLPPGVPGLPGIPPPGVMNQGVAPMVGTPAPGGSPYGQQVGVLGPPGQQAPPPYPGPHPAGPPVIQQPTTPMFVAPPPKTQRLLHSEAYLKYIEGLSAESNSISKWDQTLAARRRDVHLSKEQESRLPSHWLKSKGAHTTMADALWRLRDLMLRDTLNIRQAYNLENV
Transcription initiation factor TFIID subunit 1-like (Homo sapiens), sequence (Q8IZX4 whole entry): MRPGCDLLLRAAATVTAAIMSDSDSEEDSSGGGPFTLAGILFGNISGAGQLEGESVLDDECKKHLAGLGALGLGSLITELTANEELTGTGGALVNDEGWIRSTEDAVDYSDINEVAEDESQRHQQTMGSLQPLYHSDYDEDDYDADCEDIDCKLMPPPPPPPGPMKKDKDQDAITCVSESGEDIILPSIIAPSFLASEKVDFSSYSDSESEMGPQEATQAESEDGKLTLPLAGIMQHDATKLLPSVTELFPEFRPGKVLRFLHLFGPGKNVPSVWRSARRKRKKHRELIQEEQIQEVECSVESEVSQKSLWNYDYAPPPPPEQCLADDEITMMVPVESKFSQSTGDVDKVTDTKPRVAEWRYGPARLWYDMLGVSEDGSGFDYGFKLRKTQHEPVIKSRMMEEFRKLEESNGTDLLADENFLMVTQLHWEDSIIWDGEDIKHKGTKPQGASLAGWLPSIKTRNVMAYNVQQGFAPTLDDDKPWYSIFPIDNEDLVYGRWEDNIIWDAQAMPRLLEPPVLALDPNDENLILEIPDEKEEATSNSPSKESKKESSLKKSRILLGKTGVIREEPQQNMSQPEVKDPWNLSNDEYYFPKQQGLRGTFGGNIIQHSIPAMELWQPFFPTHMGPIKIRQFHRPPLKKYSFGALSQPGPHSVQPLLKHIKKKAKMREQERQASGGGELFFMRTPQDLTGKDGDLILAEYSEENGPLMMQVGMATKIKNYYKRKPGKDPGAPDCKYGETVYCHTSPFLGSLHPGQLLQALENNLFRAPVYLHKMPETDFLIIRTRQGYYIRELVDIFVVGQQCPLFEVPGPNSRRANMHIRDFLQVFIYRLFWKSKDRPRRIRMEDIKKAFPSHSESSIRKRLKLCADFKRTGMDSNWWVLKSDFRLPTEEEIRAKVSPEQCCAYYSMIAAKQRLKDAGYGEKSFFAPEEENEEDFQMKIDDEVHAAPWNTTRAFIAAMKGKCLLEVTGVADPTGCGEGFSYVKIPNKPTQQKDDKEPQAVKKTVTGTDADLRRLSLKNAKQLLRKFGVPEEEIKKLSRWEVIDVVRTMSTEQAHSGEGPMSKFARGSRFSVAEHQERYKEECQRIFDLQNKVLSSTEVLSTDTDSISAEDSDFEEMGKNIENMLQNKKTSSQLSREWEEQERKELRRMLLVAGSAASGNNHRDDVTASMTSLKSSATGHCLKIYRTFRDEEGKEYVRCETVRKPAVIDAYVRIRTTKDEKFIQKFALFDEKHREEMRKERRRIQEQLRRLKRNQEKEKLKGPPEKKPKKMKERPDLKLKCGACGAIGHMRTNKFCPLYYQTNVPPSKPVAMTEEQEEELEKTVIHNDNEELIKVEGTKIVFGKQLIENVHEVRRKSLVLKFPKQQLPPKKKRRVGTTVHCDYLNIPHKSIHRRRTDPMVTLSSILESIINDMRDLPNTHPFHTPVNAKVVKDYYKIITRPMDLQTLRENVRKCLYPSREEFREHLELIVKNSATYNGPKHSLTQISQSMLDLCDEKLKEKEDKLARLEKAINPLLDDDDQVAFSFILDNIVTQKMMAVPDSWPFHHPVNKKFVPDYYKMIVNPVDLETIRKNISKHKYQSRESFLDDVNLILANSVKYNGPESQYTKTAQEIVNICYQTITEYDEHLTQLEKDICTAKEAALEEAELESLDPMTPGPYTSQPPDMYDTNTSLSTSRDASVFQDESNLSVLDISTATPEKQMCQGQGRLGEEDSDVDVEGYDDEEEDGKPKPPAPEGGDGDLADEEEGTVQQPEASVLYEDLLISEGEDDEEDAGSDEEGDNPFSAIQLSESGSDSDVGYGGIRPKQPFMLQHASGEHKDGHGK

CC(=O)c1cc(-c2cc(C(=O)NC3CC3)ccc2C)c2ncccn12
IC50 [1]: 2.23 µM
IC50 [2]: 2.43 µM
IC50 [3]: 2.39 µM
IC50 [4]: 3.44 µM
ΔTm [5]: 0.38 °C
ΔTm [6]: 0.18 °C
ΔTm [7]: 0.11 °C
ΔTm [8]: 1.19 °C
ΔTm [9]: 0.68 °C
ΔTm [10]: 1.02 °C
ΔTm [11]: 1.04 °C
ΔTm [12]: -0.04 °C
ΔTm [13]: 0.25 °C
ΔTm [14]: 1.14 °C
ΔTm [15]: 0.84 °C
ΔTm [16]: 1.01 °C
ΔTm [17]: 0.91 °C
ΔTm [18]: 1.78 °C
ΔTm [19]: 6.98 °C
ΔTm [20]: 9.32 °C
ΔTm [21]: 0.61 °C
ΔTm [22]: 0.83 °C
ΔTm [23]: 0.67 °C
ΔTm [24]: 0.4 °C
ΔTm [25]: 0.79 °C
ΔTm [26]: 1.67 °C
ΔTm [27]: 3.76 °C
ΔTm [28]: 2.98 °C
ΔTm [29]: 3.55 °C
ΔTm [30]: 0.61 °C
ΔTm [31]: 0.7 °C
ΔTm [32]: 0.02 °C
ΔTm [33]: -0.26 °C
ΔTm [34]: -0.13 °C
ΔTm [35]: 0.08 °C
ΔTm [36]: 0.08 °C
ΔTm [37]: 0.19 °C
ΔTm [38]: -0.01 °C
ΔTm [39]: 0.41 °C
ΔTm [40]: 0.13 °C
ΔTm [41]: 0.08 °C
ΔTm [42]: 0.3 °C
ΔTm [43]: 0.95 °C
ΔTm [44]: 1.04 °C
ΔTm [45]: 0.25 °C
ΔTm [46]: 0.18 °C
ΔTm [47]: 1.64 °C
ΔTm [48]: 1.33 °C
ΔTm [49]: -0.06 °C
ΔTm [50]: 0.29 °C
